In patent publication US12180226B2, “Spirotricycle RIPK1 inhibitors and methods of uses thereof” (Merck Sharp & Dohme LLC, priority 2021, dated 2024):
Structures can show the parent of a compound that is named as a salt.

target: RIPK1 (recombinant GST-RIPK1 kinase domain, residues 1-327) (Homo sapiens (Human), UniProt Q13546); test: RIPK1-ADP-Glo Enzymatic Assay; assay type: biochemical; details: ADP-Glo; 25 nM GST-RIPK1, 300 μM ATP; assay lower limit ~25 nM; read-out: RIPK1 V0 Ec50
Procedure, shortened: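 Using dephosphorylated MBP (3 μM) as substrate and 300 μM ATP, 25 nM baculovirus-produced enzyme was reacted for 150 min after a 30-min compound pre-incubation. Luminescent ADP detection followed; lower confidence limit ~25 nM.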

RIPK1 (recombinant GST-RIPK1 kinase domain, residues 1-327), sequence (Q13546 1-327): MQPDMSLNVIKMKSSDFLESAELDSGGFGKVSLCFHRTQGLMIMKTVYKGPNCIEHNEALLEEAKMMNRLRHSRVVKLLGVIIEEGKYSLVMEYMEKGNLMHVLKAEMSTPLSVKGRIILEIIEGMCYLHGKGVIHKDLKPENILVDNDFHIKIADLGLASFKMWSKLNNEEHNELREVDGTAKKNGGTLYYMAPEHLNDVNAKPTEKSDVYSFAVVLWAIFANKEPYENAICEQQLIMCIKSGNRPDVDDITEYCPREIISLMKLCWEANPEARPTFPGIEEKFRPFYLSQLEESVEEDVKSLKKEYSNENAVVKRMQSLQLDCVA

Going from `O=C1N2[C@H](OC13CCN(c1ccnc4ccnn14)CC3)[C@H](O)C[C@H]2c1ccccc1` [Example 4.248, (5′S,7′R,7a′R)-7′-hydroxy-5′-phenyl-1-(pyrazolo[1,5-a]pyrimidin-7-yl)tetrahydro-3′H-spiro[piperidine-4,2′-pyrrolo[2,1-b] [1,3]oxazol]-3′-one] to `C[C@@]12CC[C@@H](c3ccccc3)N1C(=O)C1(CCN(c3ccnc4c(F)cnn34)CC1)O2` [Example 4.81, (5′S,7a′R)-1-(3-fluoropyrazolo[1,5-a]pyrimidin-7-yl)-7a′-methyl-5′-phenyltetrahydro-3′H-spiro[piperidine-4,2′-pyrrolo[2,1-b] [1,3]oxazol]-3′-one], the EC50 rises from 33.7 nM to 51.2 nM (1.5-fold).

`CC1CN(c2ncnc3ccnn23)CCC12O[C@@H]1CC[C@@H](c3cc(F)cc(F)c3)N1C2=O` (stereo partly drawn) [Example 4.267, (5′S,7a′R)-5′-(3,5-difluorophenyl)-3-methyl-1-(pyrazolo[1,5-a] [1,3,5]triazin-4-yl)tetrahydro-3′H-spiro[piperidine-4,2′-pyrrolo[2,1-b] [1,3]oxazol]-3′-one] and `Cc1occc1C(=O)N1CCC2(CC1)O[C@@H]1CC[C@@H](c3cc(F)cc(F)c3)N1C2=O` [Example 5.37, (5′S,7a′R)-5′-(3,5-difluoro-phenyl)-1-(2-methylfuran-3-carbonyl)tetrahydro-3′H-spiro[piperidine-4,2′-pyrrolo[2,1-b]oxazol]-3′-one] cannot be ordered by EC50: under 25 nM for the first, under 25 nM for the second.

`O=C(C1CC1)N1CCC2(CC1)O[C@@H]1CC[C@@H](c3cc(F)cc(F)c3)N1C2=O` [Example 1.8, (5′S,7a′R)-1-(cyclopropanecarbonyl)-5′-(3,5-difluorophenyl)tetrahydro-3′H-spiro[piperidine-4,2′-pyrrolo[2,1-b] [1,3]oxazol]-3′-one] and `O=C(C1CCCCC1)N1CCC2(CC1)O[C@@H]1CC[C@@H](c3cc(F)cc(F)c3)N1C2=O` [Example 5.7, (5′S,7a′R)-1-(cyclohexane-carbonyl)-5′-(3,5-difluoro-phenyl)tetrahydro-3′H-spiro[piperidine-4,2′-pyrrolo[2,1-b][1,3]oxazol]-3′-one] are within 1.5-fold of each other in EC50: 256 nM for the first, 236 nM for the second.

`N#Cc1ccc(F)c(C(=O)N2CCC3(CC2)O[C@@H]2CC[C@@H](c4ccccc4)N2C3=O)c1` [Example 6.148] and `O=C(c1cc(F)ccc1F)N1CCC2(CC1)O[C@@H]1CC[C@@H](c3cc(F)cc(F)c3)N1C2=O` [Example 5.1, (5′S,7a′R)-1-(2,5-Difluorobenzoyl)-5′-(3,5-difluorophenyl)tetrahydro-3′H-spiro[piperidine-4,2′-pyrrolo[2,1-b]oxazol]-3′-one] cannot be ordered by EC50: under 25 nM for the first, under 25 nM for the second.

First: CC(F)c1cc(N2CCC3(CC2)O[C@@H]2CC[C@@H](c4ccccc4)N2C3=O)ncn1 (stereo partly drawn) [Example 4.214, (5′S,7a′R)-1-[6-(1-fluoroethyl)pyrimidin-4-yl]-5′-phenyltetrahydro-3′H-spiro[piperidine-4,2′-pyrrolo[2,1-b] [1,3]oxazol]-3′-one]
Second: O=C(c1ccc(N2CCC3(CC2)O[C@@H]2CC[C@@H](c4ccccc4)N2C3=O)nc1)C(F)F [Example 4.161, (5′S,7a′R)-1-[5-(difluoroacetyl)pyridin-2-yl]-5′-phenyltetrahydro-3′H-spiro[piperidine-4,2′-pyrrolo[2,1-b] [1,3]oxazol]-3′-one]
The EC50 of the first is higher: 128 nM for the first, under 25 nM for the second. The second is the more potent here.

`N#Cc1cccc(S(=O)(=O)N2CCC3(CC2)O[C@@H]2CC[C@@H](c4cc(F)cc(F)c4)N2C3=O)c1` [Example 8.3, 3-{[(5′S,7a′R)-5′-(3,5-difluorophenyl)-3′-oxotetrahydro-1H,3′H-spiro[piperidine-4,2′-pyrrolo[2,1-b][1,3]oxazol]-1-yl]sulfonyl]benzonitrile] and `Cc1cncc(C(=O)N2CCC3(CC2)O[C@@H]2CC[C@@H](c4cc(F)cc(F)c4)N2C3=O)c1` [Example 6.59, (5′S,7a′R)-5'-(3,5-difluorophenyl)-1-(5-methylpyridine-3-carbonyl)tetrahydro-3′H-spiro[piperidine-4,2′-pyrrolo[2,1-b] [1,3]oxazol]-3′-one] are within 1.5-fold of each other in EC50: 213 nM for the first, 281 nM for the second.

`O=C(NC1(C(F)(F)F)CC1)c1nc(N2CCC3(CC2)O[C@@H]2CC[C@@H](c4cc(F)cc(F)c4)N2C3=O)ncc1F` [Example 7.10, 2-[(5′S,7a′R)-5′-(3,5-difluorophenyl)-3′-oxotetrahydro-1H,3′H-spiro[piperidine-4,2′-pyrrolo[2,1-b][1,3]oxazol]-1-yl]-5-fluoro-N-[1-(trifluoromethyl)cyclo-propyl]pyrimidine-4-carboxamide] and `N#CC1(NC(=O)c2nc(N3CCC4(CC3)O[C@@H]3CC[C@@H](c5cc(F)cc(F)c5)N3C4=O)ncc2F)CCC1` [Example 7.13, N-(1-cyanocyclobutyl)-2-[(5′S,7a′R)-5′-(3,5-difluorophenyl)-3′-oxotetrahydro-1H,3′H-spiro[piperidine-4,2′-pyrrolo[2,1-b][1,3]oxazol]-1-yl]-5-fluoropyrimidine-4-carboxamide] are within 1.5-fold of each other in EC50: 147 nM for the first, 191 nM for the second.

Going from `O=C1N2[C@@H](CC[C@H]2c2ccccc2)OC12CCN(c1nccc(-c3ccccn3)n1)CC2` [Example 11.11, (5′S,7a′R)-5′-phenyl-1-[4-(pyridin-2-yl)pyrimidin-2-yl]tetrahydro-3′H-spiro[piperidine-4,2′-pyrrolo[2,1-b][1,3]oxazol]-3′-one] to `O=C1N2[C@@H](CC[C@H]2c2ccccc2)OC12CCN(c1nccc(C3CC3)n1)CC2` [Example 11.12, (5′S,7a′R)-1-(4-cyclopropylpyrimidin-2-yl)-5′-phenyltetrahydro-3′H-spiro[piperidine-4,2′-pyrrolo[2,1-b][1,3]oxazol]-3′-one], the EC50 rises from 42 nM to 97.7 nM (2.3-fold). The first is the more potent here.

Compared with `COc1nc(N2CCC3(CC2)O[C@@H]2CC[C@@H](c4ccccc4)N2C3=O)ncc1-c1ncco1` [Example 21.10, (5′S,7a′R)-1-[4-methoxy-5-(1,3-oxazol-2-yl)pyrimidin-2-yl]-5′-phenyltetrahydro-3′H-spiro[piperidine-4,2′-pyrrolo[2,1-b][1,3]oxazol]-3′-one], `CCOC(=O)c1coc(-c2ccnc(N3CCC4(CC3)O[C@@H]3CC[C@@H](c5ccccc5)N3C4=O)c2)n1` [Example 4.173, ethyl 2-{2-[(5′S,7a′R)-3′-oxo-5′-phenyltetrahydro-1H,3′H-spiro[piperidine-4,2′-pyrrolo[2,1-b] [1,3]oxazol]-1-yl]pyridin-4-yl}-1,3-oxazole-4-carboxylate] is higher in EC50: under 25 nM for the first, 69.2 nM for the second. The first is the more potent here.

Going from `O=C1N2[C@@H](CC[C@H]2c2ccccc2F)OC12CN(S(=O)(=O)c1cccc(F)c1)C2` [Example 8.6, (5′S,7a′R)-5′-(2-fluorophenyl)-1-((3-fluorophenyl)sulfonyl) tetrahydro-3′H-spiro[azetidine-3,2′-pyrrolo[2,1-b]oxazol]-3′-one] to `O=C1N2[C@@H](CC[C@H]2c2ccccc2F)OC12CN(c1ccnc(Cl)c1)C2` [Example 4.109, (5′S,7a′R)-1-(2-chloropyridin-4-yl)-5′-(2-fluorophenyl)tetrahydro-3′H-spiro[azetidine-3,2′-pyrrolo[2,1-b]oxazol]-3′-one], the EC50 falls from 421 nM to 37.8 nM (11-fold).

Going from `COC1(C)CN(C(=O)c2nc(N3CCC4(CC3)O[C@@H]3CC[C@@H](c5cc(F)cc(F)c5)N3C4=O)ncc2F)C1` [Example 7.6, (5′S,7a′R)-5′-(3,5-difluorophenyl)-1-[5-fluoro-4-(3-methoxy-3-methylazetidine-1-carbonyl)pyrimidin-2-yl]tetrahydro-3′H-spiro[piperidine-4,2′-pyrrolo[2,1-b][1,3]oxazol]-3′-one] to `O=C(c1cnc2ccccc2n1)N1CCC2(CC1)O[C@@H]1CC[C@@H](c3cc(F)cc(F)c3)N1C2=O` [Example 6.73, (5′S,7a′R)-5′-(3,5-difluorophenyl)-1-(quinoxaline-2-carbon-yl)tetrahydro-3′H-spiro[piperidine-4,2′-pyrrolo[2,1-b][1,3]-oxazol]-3′-one], the EC50 falls from 271 nM to 48.6 nM (5.6-fold). The second is the more potent here.

First: O=C(c1nc2cnccc2s1)N1CCC2(CC1)O[C@@H]1CC[C@@H](c3cc(F)cc(F)c3)N1C2=O [Example 6.44, (5′S,7a′R)-5′-(3,5-difluorophenyl)-1-([1,3]thiazolo[4,5-c]pyridine-2-carbonyl) tetrahydro-3′H-spiro [piperidine-4,2′-pyrrolo[2,1-b][1,3]oxazol]-3′-one]
Second: N#Cc1ccc(F)c([C@@H]2CC[C@H]3OC4(CCN(c5ccnc6c(F)cnn56)CC4)C(=O)N32)c1 [Example 20.4, 4-fluoro-3-[(5′S,7a′R)-1-(3-fluoropyrazolo[1,5-a]pyrimidin-7-yl)-3′-oxotetrahydro-3′H-spiro[piperidine-4,2′-pyrrolo[2,1-b][1,3]oxazol]-5′-yl]benzonitrile]
The EC50 of the first is higher: 67.1 nM for the first, under 25 nM for the second. The second is the more potent here.

Going from `COC(=O)c1c(C)cc(N2CCC3(CC2)O[C@@H]2CC[C@@H](c4ccccc4)N2C3=O)nc1C#N` [Example 4.192, methyl 2-cyano-4-methyl-6-[(5′S,7a′R)-3′-oxo-5′-phenyltetrahydro-1H,3′H-spiro[piperidine-4,2′-pyrrolo[2,1-b] [1,3]oxazol]-1-yl] pyridine-3-carboxylate] to `CC1CC2(CCN1c1ccnc3c(F)cnn13)O[C@@H]1CC[C@@H](c3ccccc3)N1C2=O` (stereo partly drawn) [Example 4.225, (4R,5′S,7a′R)-1-(3-fluoropyrazolo[1,5-a]pyrimidin-7-yl)-2-methyl-5′-phenyltetrahydro-3′H-spiro[piperidine-4,2′-pyrrolo[2,1-b] [1,3]oxazol]-3′-one], the EC50 falls from 54.4 nM to 31.8 nM (1.7-fold).

Going from `Cc1ncc([C@@H]2CC[C@H]3OC4(CCN(C(=O)c5ccccc5)CC4F)C(=O)N32)cc1F` (stereo partly drawn) [Example 2.10, (5′S,7a′R)-1-(benzenecarbonyl)-3-fluoro-5′-(5-fluoro-6-methylpyridin-3-yl)tetrahydro-3′H-spiro[piperidine-4,2′-pyrrolo[2,1-b][1,3]oxazol]-3′-one] to `O=C1N2[C@@H](CC[C@H]2c2ccccc2)OC12CN(c1ccnc3c(F)cnn13)C2` [Example 4.96, (5′S,7a′R)-1-(3-fluoropyrazolo[1,5-a]pyrimidin-7-yl)-5′-phenyltetrahydro-3′H-spiro[azetidine-3,2′-pyrrolo[2,1-b]oxazol]-3′-one, TFA salt], the EC50 falls from 136 nM to under 25 nM. The second is the more potent here.
